Laboratory results from US6770654B2, “Indole derivatives and use thereof in medicines” (Toray Industries, Inc., priority 2000, dated 2004).
Structures can show the parent of a compound that is named as a salt.

Columns and labels:
δ opioid receptor = molecular target: T1, δ opioid receptor (Mus musculus, UniProt P32300); test: Mouse vas deferens (MVD): antagonism against the δ agonist DPDPE, pA2 by Schild method; assay type: cell-based
T1 construct: Each of the vas deferens isolated from the mice was hung in a Magnus tube; from tissue; host or cells: vas deferens of male ddy strain mice
T1 sequence (P32300 whole entry): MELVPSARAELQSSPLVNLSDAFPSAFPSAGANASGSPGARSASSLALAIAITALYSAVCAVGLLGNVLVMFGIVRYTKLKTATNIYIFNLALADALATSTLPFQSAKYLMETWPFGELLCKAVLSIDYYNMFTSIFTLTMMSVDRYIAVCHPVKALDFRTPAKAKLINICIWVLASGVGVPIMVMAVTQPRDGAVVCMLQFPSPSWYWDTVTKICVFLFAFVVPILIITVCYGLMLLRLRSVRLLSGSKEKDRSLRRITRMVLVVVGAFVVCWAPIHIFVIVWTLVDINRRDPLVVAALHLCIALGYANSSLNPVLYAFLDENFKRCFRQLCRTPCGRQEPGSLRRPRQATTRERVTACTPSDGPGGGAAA
Experimental: Using mouse vas deferens (MVD), the compounds were examined for antagonism against opioid receptor agonists, i.e., morphine (μ), DPDPE (δ), and U50,488H (κ).
Male ddy strain mice were used in this experiment. Each of the vas deferens isolated from the mice was hung in a Magnus tube which was maintained at 37° C., filled with a Krebes-Henseleit solution (NaCl 118 mM; KCl 4.7 mM; CaCl2 2.5 mM; KH2PO4 1.1 mM; NaHCO3 25 mM; glucose 11 mM), and aerated with 5% carbon dioxide and 95% oxygen. Electric stimulation was applied through upper and lower ring-shaped platinum electrodes at 0.1 Hz and 5.0 mS. Tissue contraction was recorded on a polygraph using an Isometric Transducer.
Morphine, DPDPE, and U50,488H were added in a cumulative manner to determine the IC50 values (concentration for 50% inhibition of contraction induced by electric stimulation). Next, 10 nM of a sample compound was added to the system beforehand, and 20 minutes later, morphine, DPDPE, and U50,488H were added in a cumulative manner. According to the above procedure, the ratio of the IC50 values of morphine, DPDPE, and U50,488H in the presence of the sample compound to that in its absence was determined, and the pA2 values were calculated in accordance with the Schild et al.'s method (Schild, H. O., Br. J. Pharamacol. Chemother. 4, 277 (1949)).

Structure (SMILES)	melting point	Kb (δ opioid receptor) [nM]
Oc1ccc2c3c1O[C@H]1c4c(c5c(O)c(F)cc6c5n4CCC6)C[C@@]4(O)[C@@H](C2)N(CC2CC2)CC[C@]314 (as salt: methanesulfonate)	280 °C (dec.)	–
Oc1ccc2c3c1O[C@H]1c4c(c5cc(F)cc6c5n4CC[C@@H]6O)C[C@@]4(O)[C@@H](C2)N(CC2CC2)CC[C@]314 (as salt: methanesulfonate) [Compound 3, 17-cyclopropylmethyl-6,7-didehydro-4,5α-epoxy-8′-fluoro-5′,6′-dihydro-4′H-pyrrolo[3,2,1-ij]quinolino[2′,1′:6,7]-morphinan-3,6′β,14β-triol]	240 °C (dec.)	–
Oc1ccc2c3c1O[C@H]1c4c(c5cc(F)cc6c5n4CC[C@@H]6O)C[C@@]4(O)[C@@H](C2)N(CC2CC2)CC[C@]314 [Compound 3, 17-cyclopropylmethyl-6,7-didehydro-4,5α-epoxy-8′-fluoro-5′,6′-dihydro-4′H-pyrrolo[3,2,1-ij]quinolino[2′,1′:6,7]-morphinan-3,6′β,14β-triol]	–	3.98
